The test system of data set [1] is cynomolgus monkeys with chronic and naturally occurring colitis. The data set is described as follows: RDP58 capsule therapy in primates suffering from colitis (stool quality scores). The settings on record: for response to therapy: capsule from day 0. In kind it is in vivo. How it is done: RDP58 oral therapy is believed to have a beneficial effect on resolution of clinical signs of chronic colitis in primates suffering from a naturally occurring colitis like condition. In these studies, RDP58 was administered in aqueous form (i.e., powder dissolved in water) by oral gavage. The objective of the pilot study described in this example was to analyze the effect of administering RDP58 in capsule form to primates suffering from a chronic, naturally occurring, colitis-like condition. Data generated from this study was compared to data obtained from previous studies where RDP58 peptide was administered in aqueous form.
Methods. Four cynomolgus monkeys, with documented clinical histories of chronic and naturally occurring colitis, were selected for the study. All animals were monitored for 7 days before initiating therapy. Animals were dosed with one capsule (approximately 13 mg per capsule) every day, starting on Day 0, for 14 days. A commercially available cat pilling gun was used. Disease activity was monitored using stool quality scores. The scoring system used was the following: 1=Normal; 2=Loose stool; 3=Watery diarrhea; and 4=Bloody diarrhea. Response is defined as an improvement in stool quality score by at least 1 point.
Animals were physically examined twice per day. After 14 days, RDP58 therapy was stopped and animals were monitored for 7 additional days. Stool quality was documented through this period.

Data set [2] shares this test system. The description is as above. In kind it is in vivo. As to conditions: animal MCY33636; capsule from day 0, treatment extended to day 21.
A short description of data set [3]: Fill formulation: solubility and dispersion of the peptide in Labrafil M 1944 CS. The class given is physicochemical. How it is done: Fill Formulation. […] The RDP58 peptide was not soluble in Labrafil M 1944 CS, thus a stable suspension of the peptide was made using Colloidal Silicon Dioxide, USP (Aerosil 300) as a suitable dispersing agent. Bench trials were performed to determine the needed quantity of Aerosil 300, which would provide a sufficient viscosity increase to maintain the peptide uniformly suspended for a minimum of 24 hours while allowing the fill formulation to remain flowable or pumpable. The fill formulation for the a 100 mg RDP58 softgel capsule is the following: […]

The mark [4] stands for this setting: all animals studied, oral capsule.

“Also recorded” adds a separate entry of the source.

For `CCCC[C@@H](NC(=O)[C@H](N)CCCNC(=N)N)C(=O)N[C@H](CCCC)C(=O)N[C@H](CCCC)C(=O)N[C@H](CCCNC(=N)N)C(=O)N[C@H](CCCC)C(=O)N[C@H](CCCC)C(=O)N[C@H](CCCC)C(=O)NCC(=O)N[C@H](Cc1ccc(O)cc1)C(N)=O` [RDP58, NH2-(D)Arg-(D)nL-(D)nL-(D)nL-(D)Arg-(D)nL-(D)nL-(D)nL-Gly-(D)Tyr-NH2], the negative side effects entry in data set [1] (setting [4]) is listed as “None of the animals studied showed negative side effects”. In addition, the tolerability of dosing entry in data set [1] (setting [4]) is reported as “well tolerated”. Besides, the “effect on disease activity / therapeutic response” value in data set [1] (all four animals, one capsule (approximately 13 mg) orally every day for 14 days, stool quality scores) was “positive effects; also recorded: positive therapeutic response”. The response to therapy entry is listed as “immediate response” in data set [1] (animal 33558), “immediate response” in data set [1] (animal MCY33560), “immediate positive response” in data set [1] (animal MCY33639) and “response was immediate” in data set [2]. Moreover, the response to re-treatment entry in data set [1] (animal 33558, re-treated starting on day 23) is given as “Response to therapy was immediate”; in data set [1] (animal MCY33639, re-treated on day 23), “immediate positive response”. Moreover, the “time animal remained normal after therapy was stopped” value in data set [1] (animal 33558, therapy stopped on day 14) fell in the range of 4 to 5 days. In addition, the “duration of normal stool quality” value in data set [1] (animal MCY33636) was determined as 8 days. Moreover, the “dispersion of the peptide” value in data set [3] (in Labrafil M 1944 CS) was “enhanced dispersion”. Further, the “solubility in Labrafil M 1944 CS” value in data set [3] (suspending agent Labrafil M 1944 CS) was “not soluble”.

These data come from patent US7498309B2, “Pharmaceutical compositions for bioactive peptide agents” (Sangstat Medical Corporation, priority 2003, dated 2009).
